In patent US9012611B2, “Use of 3,8,12,14, 17,20-oxo-substituted pregnene glycosides in the preparation of healthcare products, food additives and pharmaceuticals for the inhibition of appetite” (Institute of Materia Medica, Chinese Academy of Sciences, priority 2010, dated 2015):

What was measured:
female Wistar rat = assay: Animal test in vivo: average food consumption (appetite inhibition); conditions: for Average food consumptions: positive control 15 mg/kg; for average food consumptions compared with the blank control group (in words): during the administration of the drugs, pure glycosides 50 mg/kg
Method: (§1) 6-7 weeks-old female Wistar rat (purchased from Shanghai Laboratory Animal Center of Chinese Academy of Sciences)(weight: 110-150 g) was raised alone in suspended metal cage. After the experimental rat was obtained, it was checked to make sure whether they were abnormal or had obvious disease signs. The rat can freely obtain the drinking-water and feed for rodent (RM1(E)AQC). The feeding cage was controlled to receive 12 h illumination (from 07:00 to 19:00) and to be in a dark environment for 12 h, and the room temperature and relative humidity were controlled to be 21±3° C. and 55±15% respectively and not to deviate the upper and lower limit. The rats were randomly divided into groups depending on the body weight according to random number table to make the average weight in each group are approximately equal. Before the test, the rats were pre-trained suitably for one week (from −7th day to −1st day) during which the consumptions of feed and drinking water were recorded.
(§2) Each group of drug to be tested, positive control group, and blank control group consisted of 5 rats, respectively. The tested drug and positive control drug were mixed with wheaten starch before the administration and formulated to suspension with required doses according to 10 mL/kg of administration volume. The positive control drug was sibutramine hydrochloride and the administration dosage was 15 mg/kg body weight. In the blank control group, only equal amount of starch was used to formulate suspension for administration by […] in a same volume. The administration time is the 1st day, 2nd day and 3rd day. The body weight of the rat, the consumption of the feed (the weight of the feeding hopper) and consumption of the drinking water (bottle weight) were recorded from the −7th day to the 7th day.

[1] = Animal test in vivo: average body weight; set-up: species or system rat; conditions: for Average body weight: positive control 15 mg/kg; for body weight compared with the blank control group (in words): during the administration of the drugs, pure glycosides 50 mg/kg
Method: as §1, §2

Compound: CO[C@H]1C[C@H](O[C@H]2[C@@H](OC)C[C@H](O[C@H]3CC[C@@]4(C)C(=CC[C@]5(O)[C@@H]4C[C@@H](OC(=O)/C=C(\C)C(C)C)[C@@]4(C)[C@]5(O)CC[C@@]4(O)C(C)=O)C3)O[C@@H]2C)O[C@@H](C)[C@H]1O[C@H]1C[C@H](OC)[C@H](O[C@H]2C[C@@H](OC)[C@@H](O)[C@H](C)O2)[C@@H](C)O1 [Wilfoside C1N, wilfoside C1N]
- Average food consumptions (female Wistar rat; 1st day (administration day), Table 4, wilfosides 50 mg/kg): 11.6 g
- Average food consumptions (female Wistar rat; 2nd day (administration day), Table 4, wilfosides 50 mg/kg): 8.8 g
- Average food consumptions (female Wistar rat; 3rd day (administration day), Table 4, wilfosides 50 mg/kg): 3.6 g
- Average food consumptions (female Wistar rat; 4th day (after administration on days 1-3), Table 4, wilfosides 50 mg/kg): 11.6 g
- Average food consumptions (female Wistar rat; 5th day (after administration on days 1-3), Table 4, wilfosides 50 mg/kg): 15.6 g
- Average food consumptions (female Wistar rat; 6th day (after administration on days 1-3), Table 4, wilfosides 50 mg/kg): 13.6 g
- Average food consumptions (female Wistar rat; 7th day (after administration on days 1-3), Table 4, wilfosides 50 mg/kg): 15.6 g
- average food consumptions compared with the blank control group (in words) (female Wistar rat; crude extract 300 mg/kg): greatly different from those in the blank group
- Average food consumptions (female Wistar rat; −1st day (before administration), Table 4, wilfosides 50 mg/kg): 13.6 g
- Average food consumptions (female Wistar rat; −2nd day (before administration), Table 4, wilfosides 50 mg/kg): 14 g
- Average food consumptions (female Wistar rat; −3rd day (before administration), Table 4, wilfosides 50 mg/kg): 13.2 g
- Average food consumptions (female Wistar rat; −4th day (before administration), Table 4, wilfosides 50 mg/kg): 13.2 g
- Average food consumptions (female Wistar rat; −5th day (before administration), Table 4, wilfosides 50 mg/kg): 14.8 g
- Average food consumptions (female Wistar rat; −6th day (before administration), Table 4, wilfosides 50 mg/kg): 10.8 g
- Average food consumptions (female Wistar rat; −7th day (before administration), Table 4, wilfosides 50 mg/kg): 8.4 g
- Average body weight ([1]; 1st day (administration day), Table 6, wilfosides 50 mg/kg): 152 g
- Average body weight ([1]; 2nd day (administration day), Table 6, wilfosides 50 mg/kg): 146.8 g
- Average body weight ([1]; 3rd day (administration day), Table 6, wilfosides 50 mg/kg): 141.6 g
- Average body weight ([1]; 4th day (after administration on days 1-3), Table 6, wilfosides 50 mg/kg): 149.2 g
- Average body weight ([1]; 5th day (after administration on days 1-3), Table 6, wilfosides 50 mg/kg): 154 g
- Average body weight ([1]; 6th day (after administration on days 1-3), Table 6, wilfosides 50 mg/kg): 155.2 g
- Average body weight ([1]; 7th day (after administration on days 1-3), Table 6, wilfosides 50 mg/kg): 157.2 g
- body weight compared with the blank control group (in words) ([1]; crude extract 300 mg/kg): no great differences
- Average body weight ([1]; −1st day (before administration), Table 6, wilfosides 50 mg/kg): 154 g
- Average body weight ([1]; −2nd day (before administration), Table 6, wilfosides 50 mg/kg): 151.4 g
- Average body weight ([1]; −3rd day (before administration), Table 6, wilfosides 50 mg/kg): 148.4 g
- Average body weight ([1]; −4th day (before administration), Table 6, wilfosides 50 mg/kg): 146.8 g
- Average body weight ([1]; −5th day (before administration), Table 6, wilfosides 50 mg/kg): 144.4 g
- Average body weight ([1]; −6th day (before administration), Table 6, wilfosides 50 mg/kg): 142 g
- Average body weight ([1]; −7th day (before administration), Table 6, wilfosides 50 mg/kg): 140.6 g

Compound: CO[C@H]1C[C@H](O[C@H]2[C@@H](OC)C[C@H](O[C@H]3CC[C@@]4(C)C(=CC[C@]5(O)[C@@H]4C[C@@H](OC(=O)/C=C/c4ccccc4)[C@@]4(C)[C@]5(O)CC[C@@]4(O)C(C)=O)C3)O[C@@H]2C)O[C@@H](C)[C@H]1O[C@H]1C[C@H](OC)[C@H](O[C@H]2C[C@@H](OC)[C@@H](O[C@@H]3O[C@H](CO)[C@@H](O)[C@H](O)[C@H]3O)[C@H](C)O2)[C@@H](C)O1 [Cynauricuoside A, cynauricuoside A]
- Average food consumptions (female Wistar rat; 1st day (administration day), Table 1, crude extract 300 mg/kg, others 50 mg/kg): 9.2 g
- Average food consumptions (female Wistar rat; 2nd day (administration day), Table 1, crude extract 300 mg/kg, others 50 mg/kg): 10.8 g
- Average food consumptions (female Wistar rat; 3rd day (administration day), Table 1, crude extract 300 mg/kg, others 50 mg/kg): 9.2 g
- Average food consumptions (female Wistar rat; 4th day (after administration on days 1-3), Table 1, crude extract 300 mg/kg, others 50 mg/kg): 15.2 g
- Average food consumptions (female Wistar rat; 5th day (after administration on days 1-3), Table 1, crude extract 300 mg/kg, others 50 mg/kg): 13.6 g
- Average food consumptions (female Wistar rat; 6th day (after administration on days 1-3), Table 1, crude extract 300 mg/kg, others 50 mg/kg): 13.2 g
- Average food consumptions (female Wistar rat; 7th day (after administration on days 1-3), Table 1, crude extract 300 mg/kg, others 50 mg/kg): 13.6 g
- average food consumptions compared with the blank control group (in words) (female Wistar rat; crude extract 300 mg/kg): greatly less than those in the blank control group
- Average food consumptions (female Wistar rat; −1st day (before administration), Table 1, crude extract 300 mg/kg, others 50 mg/kg): 12.4 g
- Average food consumptions (female Wistar rat; −2nd day (before administration), Table 1, crude extract 300 mg/kg, others 50 mg/kg): 14.4 g
- Average food consumptions (female Wistar rat; −3rd day (before administration), Table 1, crude extract 300 mg/kg, others 50 mg/kg): 13.6 g
- Average food consumptions (female Wistar rat; −4th day (before administration), Table 1, crude extract 300 mg/kg, others 50 mg/kg): 14 g
- Average food consumptions (female Wistar rat; −5th day (before administration), Table 1, crude extract 300 mg/kg, others 50 mg/kg): 13.6 g
- Average food consumptions (female Wistar rat; −6th day (before administration), Table 1, crude extract 300 mg/kg, others 50 mg/kg): 11.2 g
- Average food consumptions (female Wistar rat; −7th day (before administration), Table 1, crude extract 300 mg/kg, others 50 mg/kg): 14 g
- Average body weight ([1]; 1st day (administration day), Table 3, crude extract 300 mg/kg, others 50 mg/kg): 158.8 g
- Average body weight ([1]; 2nd day (administration day), Table 3, crude extract 300 mg/kg, others 50 mg/kg): 156.4 g
- Average body weight ([1]; 3rd day (administration day), Table 3, crude extract 300 mg/kg, others 50 mg/kg): 153.6 g
- Average body weight ([1]; 4th day (after administration on days 1-3), Table 3, crude extract 300 mg/kg, others 50 mg/kg): 156.8 g
- Average body weight ([1]; 5th day (after administration on days 1-3), Table 3, crude extract 300 mg/kg, others 50 mg/kg): 158.4 g
- Average body weight ([1]; 6th day (after administration on days 1-3), Table 3, crude extract 300 mg/kg, others 50 mg/kg): 164.4 g
- Average body weight ([1]; 7th day (after administration on days 1-3), Table 3, crude extract 300 mg/kg, others 50 mg/kg): 166.8 g
- body weight compared with the blank control group (in words) ([1]; crude extract 300 mg/kg): the tendency of body weight change was greatly different
- Average body weight ([1]; −1st day (before administration), Table 3, crude extract 300 mg/kg, others 50 mg/kg): 163.6 g
- Average body weight ([1]; −2nd day (before administration), Table 3, crude extract 300 mg/kg, others 50 mg/kg): 160.4 g
- Average body weight ([1]; −3rd day (before administration), Table 3, crude extract 300 mg/kg, others 50 mg/kg): 158 g
- Average body weight ([1]; −4th day (before administration), Table 3, crude extract 300 mg/kg, others 50 mg/kg): 156 g
- Average body weight ([1]; −5th day (before administration), Table 3, crude extract 300 mg/kg, others 50 mg/kg): 154.4 g
- Average body weight ([1]; −6th day (before administration), Table 3, crude extract 300 mg/kg, others 50 mg/kg): 152.8 g
- Average body weight ([1]; −7th day (before administration), Table 3, crude extract 300 mg/kg, others 50 mg/kg): 150 g
